From ChEMBL document CHEMBL1134103 come the findings set out here.

The structures appear in SMILES notation.

Peptidyl-prolyl cis-trans isomerase A (Homo sapiens), sequence (P62937 whole entry, looked up): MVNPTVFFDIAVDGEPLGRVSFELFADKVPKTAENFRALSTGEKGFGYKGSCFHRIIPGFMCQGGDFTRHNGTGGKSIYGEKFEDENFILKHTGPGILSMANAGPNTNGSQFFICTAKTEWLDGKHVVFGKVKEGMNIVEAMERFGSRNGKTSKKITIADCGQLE

The assay addresses Peptidyl-prolyl cis-trans isomerase A (Homo sapiens) (UniProt P62937). Briefly: Permeation ratio of cell-free CyP binding to intracellular CyP binding. The assay is classed as cell-based.
As for `CCCC[C@H]1C(=O)N[C@@H](C(C)C)C(=O)N[C@@H](Cc2cccc(O)c2)C(=O)N2CCC[C@H](N2)C(=O)O[C@H](/C(C)=C/C=C/CC[C@H](C)[C@@H](O)C[C@@H]2O[C@@]3(NC(=O)[C@@H](CC)C[C@@H]3C)[C@@H](C)[C@@H](O)[C@H]2C)C/C=C/C=C/[C@H](O)[C@H](C)[C@H]1O`, the Ratio is 0.8.

On to `CC[C@H]1C[C@H](C)[C@@]2(NC1=O)O[C@@H](C[C@H](O)[C@@H](C)CCCCCC(C)[C@@H]1CCCCC[C@H](O)[C@H](C)[C@@H](O)[C@@H](CCC(C)=O)C(=O)N[C@@H](C(C)C)C(=O)N[C@@H](Cc3ccccc3)C(=O)N3CCC[C@H](N3)C(=O)O1)[C@H](C)[C@H](O)[C@@H]2C` (stereo partly drawn), for which the Ratio was 270.

Take `CC[C@H]1C[C@H](C)[C@@]2(NC1=O)O[C@@H](C[C@H](O)[C@@H](C)CCCCCC(C)[C@@H]1CCCCC[C@H](O)[C@H](C)[C@@H](O)[C@@H](CCC(C)=O)C(=O)N[C@@H](C(C)C)C(=O)N[C@@H](Cc3cccc(O)c3)C(=O)N3CCC[C@H](N3)C(=O)O1)[C@H](C)[C@H](O)[C@@H]2C` (stereo partly drawn): the Ratio stood at 65.
